Source: US7034005B2, “Use of agent for suppressing infection and proliferation of human immunodeficiency syndrome virus” (The Kitasato Institute, priority 2002, dated 2006)

Key:
[1] = tested on: HIV-1BAL strain in M type macrophage (M-MΦ) derived from human monocytes; assay: Proliferation of HIV-1 in M-MΦ: p24 protein in culture supernatant by sandwich ELISA; format: cell-based; conditions: for suppression of viral generation (p24 in culture supernatant) in M-MΦ: 30 μM, HIV-1BAL, 14 days of culture, compared with DMSO control (FIG. 13); for viral proliferation at 300 μM in M-MΦ: also observed in DMSO control, ascribed to cytotoxicity of DMSO; for concentration dependence of suppressive action on HIV-1BAL in M-MΦ: various concentrations (FIG. 16); for p24 protein in culture supernatant of oligonucleotide pretreated M-MΦ: day 4, 7 and 10 after HIV-1BAL infection, compared with lipofectin control (L) (FIG. 10)
Procedure: (§1) Macrophages derived from monocytes were prepared by culturing the recovered monocytes in the presence of M-CSF (macrophage colony-stimulating factor) (10^4 U/ml, provided by Morinaga Milk Co.), granulocytes and granulocyte-macrophage colony-stimulating factor, GM-CSF) (500 U/ml, provided by Japan Scheling Plough Co., Osaka, or purchased from R & S Genzyme-TECHNE Inc.) with RPMI1640 medium added with FCS10% (Nissui Seiyaku Co., Tokyo) for 7–8 days.
(§2) The macrophage prepared by differential induction of M-CSF from human monocytes is designated as M type macrophage (M type MΦ or M-MΦ) and the macrophage prepared by differential induction of GM-CSF from human monocytes is designated as GM type macrophage (GM type MΦ or GM-MΦ) Further, alveolar macrophage (alveolar MΦ or A-MΦ) was prepared as follows. Cells in the alveolar lavage liquid obtained from the alveolar lavage of healthy volunteers were recovered, suspended and adhered to plastics, then the non-adhered cells were washed out and the remained adhered cells were designated as the alveolar MΦ.
(§3) Infection of HIV-1 to macrophage was performed as follows. Macrophage directed viral strains, HIV-1JR-FL and HIV-1BAL, were infected for 2 hours in contact with M-MΦ, GM-MΦ and A-MΦ (adjusted to 2.5×10^5/well, Flacon No3043: Becton Dickinson Labware, Inc. U.S.)at low concentration (p24 antigen titer 50 ng/ml, TCID50=3000/ml virus to final concentration at 100 pg/ml), and non-adsorbed virus to the macrophage was washed out, and cultured with adding fresh medium. In case of the medium with M-MΦ, M-CSF was added (10^4 U/ml), and that of the medium with GM-MΦ, GM-CSF was added (500 U/ml).
(§4) Proliferation of virus was examined with the released viral particles in the culture supernatant after the infection by the sandwich ELISA using two types of anti-p24 antibody (Nu24 and 10B5^13). The following JAM62 and JAM65 were used as LTR (HIV long terminal repeat)-gap gene primer. The following JAM63 and JAM 64 were used as the internal primer for the nested PCR. • JAM62: • 5′-[…]-3′ (SEQ ID NO: 1) • JAM65: • 5′-[…]-3′ (SEQ ID NO: 2) • JAM63: • 5′-GTGTOACTCTGGTAACTAGAGATCC-3′ (SEQ ID NO: 3) • JAM64: • 5′-[…]-3′ (SEQ ID NO: 4) (1-4) Assay of Expression of Tyrosine Kinase Hck Protein and Transcription Factor C/EBPβ Protein
(§5) In order to show growth suppression effect of the present invention, among macrolide derivatives, EM, EM201, EM202, EM703, CAM, EM722, EM730, EM732, EM736, EM734, EM735, EM747, EM748, EM743, EM746, EM750 or EM751 was dissolved in DMSO with each 100 mM concentration, and used in dilution with the medium thereafter. A control group was M-MΦ treated only with DMSO used for dissolving macrolide derivatives.
(§6) M-MΦ and GM-M Φ were subjected to contact infection with HIV-1BAL strain for 2 hours, added 30 μM of EM, EM201, EM202, EM703, CAM,EM722, EM730, EM732, EM736, EM734, EM735, EM747, EM748, EM743, EM746, EM750 or EM751, incubated for 14 days and amount of p24 protein in the cultured supernatant was assayed in the time-dependent manner.

[2] = tested on: HIV-1BAL strain in GM type macrophage (GM-MΦ) derived from human monocytes; assay: Proliferation of HIV-1 in GM-MΦ: p24 protein in culture supernatant by sandwich ELISA; format: cell-based; conditions: 30 μM, HIV-1BAL, all assay points up to 14 days, similar to DMSO control (FIG. 14)
Procedure: as §1, §2, §3, §4, §5, §6

[3] = tested on: HIV-1BAL strain infected M-MΦ; assay: Cytopathy (MGC formation) of HIV-1 infected M-MΦ; format: cell-based, human; conditions: 30 μM, HIV-1BAL (FIG. 17)
Procedure: Formation of cell cluster and cell fusion was observed from the 2nd day of the incubation only in virus producing M-MΦ and formation of multinucleatic giant cells were recognized from the culture day 4–7 [refer to FIG. 2(A)]. On the other hand, in GM-MΦ without generation of virus, nomorphological changes were observed [refer to FIG. 2(B)].
M-MΦ was subjected to contact infection with HIV-1BAL strain for 2 hours, added 30 μM of EM, EM201, EM202, EM703 or CAM, incubated and observed the cell morphology.

[4] = tested on: tyrosine kinase Hck protein; assay: Expression of tyrosine kinase Hck protein in M-MΦ by Western blotting; format: cell-based, human; conditions: for expression of tyrosine kinase Hck protein in HIV-1 infected M-MΦ: 30 μM, compared with DMSO control (FIG. 18); for expression of tyrosine kinase Hck protein in HIV-1 infected M-MΦ / expression of tyrosine kinase Hck protein in oligonucleotide pretreated M-MΦ after infection: day 2 after HIV-1BAL infection; for expression of tyrosine kinase Hck protein in oligonucleotide treated M-MΦ before infection: probe 2 μM for 24 hours, further 24 hours incubation, compared with lipofectin control (L) (FIG. 9)
Description: Expression of tyrosine kinase Hck protein and transcription factor C/EBPβ protein in macrophage was examined after solubilizing the macrophage in SDS-PAGE sample buffer, performing 10% SDS-polyacrylamide electrophoresis, transferring the protein on the gel to immobilon P membrane (Millipore Inc. U.S.) and checking antibodies against these proteins by Western blotting. Antibody to tyrosine kinase Hck protein (N-30) and antibody to C/EBPβ (C-19) were purchased from Santacluse Inc. (U.S.). Western blotting was detected by Amersham ELC Regent (Amersham International plc, Buckinghamshire, UK). Strength of bands was expressed by PSL (photostimulating luminescence) value (A/mm^2).
These probes were dissolved in the serum free RPMI1640 medium, in which lipofectin (Life Technology Inc., U.S.) was dissolved at 5 μM concentration, at room temperature for 30 minutes, added with RPMI1640 medium, which contains 10% FCS, to the macrophage (final concentration 2 μM) and incubated at 37° C. for 24 hours. Thereafter, cells were washed with the medium, added the RPMI1640 medium containing 10% FCS without oligonucleotide, further cultured for 24 hours, and then infected with HIV-1.
Consequently, M-MΦ was subjected to contact infection with HIV-1BAL strain for 2 hours, added 30 μM of EM, EM201, EM202, EM703 or CAM, incubated and expression of tyrosine kinase Hck protein was observed on day 2 after the infection by Western blotting.

p38MAPK = assay: Tyrosine phosphorylation (activation) of p38MAPK in HIV-1 infected M-MΦ by Western blotting; format: cell-based, human; conditions: 30 μM, day 2 of culture, HIV-1BAL infected M-MΦ, compared with DMSO (FIG. 19(A))
Procedure: (§7) P38MAPK and ERK1/2 activation were determined using P38MAPK antibody, anti-ERK1/2 antibody, anti-tyrosine phosphorylation P38MAPK antibody and anti-tyrosine phosphorylation ERK1/2 antibody (New England Biolabs, Inc. U.S.), and phosphorylation reaction of these molecules was determined by Western blotting.
Thirty μM of EM, EM201, EM202, EM703 or CAM were added to M-MΦ infected with HIV-1BAL strain, tyrosine phosphorylation of p38MAPK was detected on day 2 of the culture by Western blotting. […] In any groups, total amount of p38MAPK (total sum of phosphorylated and non-phosphorylated p38MARK) was equal.

ERK1/2 = assay: Tyrosine phosphorylation (activation) of ERK1/2 in HIV-1 infected M-MΦ by Western blotting; format: cell-based, human; conditions: 30 μM, HIV-1BAL infected M-MΦ, compared with DMSO (FIG. 19(B))
Procedure: as §7
In any groups, total amount of ERK1/2 (total sum of phosphorylated and non-phosphorylated p38MARK) was equal [refer to FIG. 19(B)].

Compound | proliferation of virus in M-MΦ at 3 μM ([1]; 3 μM) | suppression of viral generation (p24 in culture supernatant) in M-MΦ [1] | viral proliferation at 300 μM in M-MΦ [1] | concentration dependence of suppressive action on HIV-1BAL in M-MΦ [1] | viral generation in GM-MΦ [2] | cytopathic effect (MGC formation) in HIV-1 infected M-MΦ [3] | expression of tyrosine kinase Hck protein in HIV-1 infected M-MΦ [4] | tyrosine phosphorylation of p38MAPK (p38MAPK) | tyrosine phosphorylation of ERK1/2 (ERK1/2) | p24 protein in culture supernatant of oligonucleotide pretreated M-MΦ [1] | expression of tyrosine kinase Hck protein in oligonucleotide pretreated M-MΦ after infection [4] | expression of tyrosine kinase Hck protein in oligonucleotide treated M-MΦ before infection [4]
11-(1′-hydroxypropyl)-3-[2,6-dideoxy-3-C-methyl-α-L-ribo-hexopyranosyl]oxy]-5-[(3,4,6-trideoxy-3-(dimethylamino)-β-D-xylo-hexopyranosyl)oxy]-2,4,6,8,11,14-hexamethyl-10,13,15-tri-oxatricyclo[9.2.1.1.^9.6]-pentadecane-1-one [EM201] | inhibited almost completely the proliferation of virus | almost no p24 was detected | viral proliferation at 300 μM was observed | concentration dependent manner | almost no viral generation was recognized | no cytopathic effect such as MCG formation was observed | strongly suppressed | significantly decreased | promotion of tyrosine phosphorylation of ERK1/2 was recognized | – | – | –
CC[C@H]1OC(=O)[C@H](C)[C@@H](O[C@H]2C[C@@](C)(OC)[C@@H](O)[C@H](C)O2)[C@H](C)[C@@H](O[C@@H]2O[C@H](C)C[C@H](N(C)C)[C@H]2O)[C@](C)(OC)C[C@@H](C)C(=O)[C@H](C)[C@@H](O)[C@]1(C)O [CAM, Oxacyclotetradecane-2,10-dione,4-[(2,6-dideoxy-3-O-methyl-α-L-ribo-hexopyranosyl)oxy]-14-ethyl-12,13-dihydroxy-7-methoxy-3,5,7,9,11,13-hexamethyl-6-[[3,4,6-trideoxy-3-(dimethylamino)-β-D-xylo-hexopyranosyl]oxy], reference compound] | – | approximately ½ | viral proliferation at 300 μM was observed | exhibited suppression of viral production depending upon drug concentration | almost no viral generation was recognized | formation of MGC was slightly recognized | the suppression of tyrosine kinase Hck protein was observed, though not so strong | recognized to decrease, though not so strong | weakly recognized as same in the control group | – | – | –
Hck-NS: Phosphorothioate-modified non-sense oligonucleotide probe, 5′-CCATATTTCCCGCTCOCGTG-3′ (SEQ ID NO: 7) (CCATATTTCCCGCTCGCGTG; all phosphorothioate, sugars by position and methylation of C not given here) | – | – | – | – | – | – | – | – | – | time-dependent increase in p24 protein was recognized | no suppression of expression of tyrosine kinase Hck protein was recognized | suppression of expression of tyrosine kinase Hck protein was recognized
Hck-S: Phosphorothioate-modified sense oligonucleotide probe of Hck, 5′-GCCAGOATOGGGTCGATCAA-3′ (SEQ ID NO: 6) | – | – | – | – | – | – | – | – | – | time-dependent increase in p24 protein was recognized | no suppression of expression of tyrosine kinase Hck protein was recognized | suppression of expression of tyrosine kinase Hck protein was recognized
